Experimental data taken from PubChem BioAssay (NCI).
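1) Cells in 96-well plates. 2) Compound, 48 h, 5 concentrations. 3) Linear interpolation between surrounding doses. 4) Unreached endpoint = highest concentration. Definition used: TGI = concentration required for complete inhibition of growth.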

Assays:
Assay in all cases: DTP human tumour cell line panel, 48 h
ACHN renal = tested on: ACHN renal
BT-549 breast = tested on: BT-549 breast
CCRF-CEM leukemia = tested on: CCRF-CEM leukemia
EKVX NSCLC = tested on: EKVX NSCLC
HCC-2998 colon = tested on: HCC-2998 colon
HCT-15 colon = tested on: HCT-15 colon
K-562 leukemia = tested on: K-562 leukemia
KM12 colon = tested on: KM12 colon
MDA-MB-435 = tested on: MDA-MB-435
MDA-N = tested on: MDA-N
NCI-H23 lung = tested on: NCI-H23 lung
NCI-H460 lung = tested on: NCI-H460 lung
NCI-H522 lung = tested on: NCI-H522 lung
OVCAR-4 ovarian = tested on: OVCAR-4 ovarian
OVCAR-8 ovarian = tested on: OVCAR-8 ovarian
PC-3 prostate = tested on: PC-3 prostate
SNB-19 CNS = tested on: SNB-19 CNS
SNB-75 CNS = tested on: SNB-75 CNS
UACC-257 melanoma = tested on: UACC-257 melanoma
UO-31 renal = tested on: UO-31 renal

SMILES	TGI (ACHN renal) [µM]	TGI (BT-549 breast) [µM]	TGI (CCRF-CEM leukemia) [µM]	TGI (EKVX NSCLC) [µM]	TGI (HCC-2998 colon) [µM]	TGI (HCT-15 colon) [µM]	TGI (K-562 leukemia) [µM]	TGI (KM12 colon) [µM]	TGI (MDA-MB-435) [µM]	TGI (MDA-N) [µM]	TGI (NCI-H23 lung) [µM]	TGI (NCI-H460 lung) [µM]	TGI (NCI-H522 lung) [µM]	TGI (OVCAR-4 ovarian) [µM]	TGI (OVCAR-8 ovarian) [µM]	TGI (PC-3 prostate) [µM]	TGI (SNB-19 CNS) [µM]	TGI (SNB-75 CNS) [µM]	TGI (UACC-257 melanoma) [µM]	TGI (UO-31 renal) [µM]
CC(=O)Nc1ccc(-c2nc3ccccc3s2)cc1Cl	> 100	> 100	> 100	> 100	> 100	> 100	> 100	> 100	> 100	> 100	> 100	> 100	> 100	> 100	> 100	> 100	> 100	> 100	> 100	> 100
CCOC(=O)c1c(C)noc1/N=N/N(CCO)CCO	> 100	> 100	59.3	> 100	78.3	> 100	> 100	> 100	> 100	> 100	> 100	> 100	70.7	> 100	> 100	> 100	> 100	46.1	86.5	77.2
CN(C)Cc1cc(N=Nc2ccccc2Cl)ccc1O	33.4	85.4	54.2	> 100	26.8	75.5	38.4	75.5	32.9	33.4	83.9	18.2	23.5	> 100	25.3	> 100	> 100	55.8	46.3	36.5
Cc1cc(C)c(S(=O)(=O)N(CCCCCCN)OCCCN)c(C)c1	30.9	33.3	36.9	29.9	32.6	32.5	> 100	32.1	> 100	32.2	32	31.6	27.3	46.2	27.9	28.1	38.2	22.8	29.7	43.2
CC(C)C(C/C=C1/CC(CO)(COC(=O)C(C)(C)C)OC1=O)C(C)C (stereo not given)	21	26.9	36.5	23	15.2	34.6	24.9	27.3	21.5	19.6	23.8	25.7	27.6	31.5	36.4	21.1	26.1	21.1	32.7	17.3
CC(=O)/C=C(/C=N/O)c1ccccc1	> 100	> 100	> 100	> 100	> 100	> 100	> 100	> 100	> 100	> 100	> 100	> 100	> 100	> 100	> 100	> 100	> 100	> 100	> 100	> 100
